In the OligoGym collection:
Several values for one entry are separate records, joined by “and”; a condition that tells them apart may be missing. Equal entries are not always repeated. After the bases stand the sugars from the 5' end (letter, count) and the backbone: PS all phosphorothioate, else s phosphorothioate and o phosphodiester by linkage. Methylation of C is not given here. e = 2'-O-(2-methoxyethyl) (MOE); k = constrained ethyl (cEt); d = 2'-deoxy (DNA)

molecular target: SOD1; conditions: ASO, HepG2, 3 µM

| Sequence | target mRNA inhibition [%] |
| --- | --- |
| TAGCAGGATAACAGATG (sugars e3 k2 d7 k2 e3, PS) | 34 |
| ATTCACAGGCTTGAATG (sugars e3 k2 d7 k2 e3, PS) | 11 |
| GTCCATTACTTTCCTTC (sugars e3 k2 d7 k2 e3, PS) | 33 |

same assay, conditions: ASO, HepG2, 4 µM

| Sequence | target mRNA inhibition [%] |
| --- | --- |
| TTGGGCGATCCCAATTA (sugars e2 k2 d9 k2 e2, PS) | 5 |
| AATGTTTATTGGGCGAT (sugars e2 k2 d9 k2 e2, PS) | 64 |
| AGCTAGCAGGATAACAG (sugars e2 k2 d9 k2 e2, PS) | 54 |

same assay, conditions: ASO, HepG2, 5 µM

| Sequence | target mRNA inhibition [%] |
| --- | --- |
| CTCACTACAGGTACTTT (sugars e2 k2 d8 k2 e3, PS) | 40 |
| GTGATTTAAGTCTGGCA (sugars e2 k2 d9 k2 e2, PS) | 69 |
| AGGTCATTGAAACAGAC (sugars e2 k2 d8 k2 e3, PS) | 40 |

molecular target: MALAT1; conditions: ASO, A431, 0.005 µM

| Sequence | target mRNA inhibition |
| --- | --- |
| CGCCAGCCCCCCACGG (sugars k3 d10 k3, PS) | -45% |
| TCTGGAAAAGCTAGGG (sugars k3 d10 k3, PS) | -21% |
| AGGATCCAAGCTACTG (sugars k3 d10 k3, PS) | -13% |
| GTTATGCCTGGTTAGG (sugars k3 d10 k3, PS) | 16% |
| CAAATCGCCATGGAAA (sugars k3 d10 k3, PS) | 14% |
| GGATTTTTACCAACCA (sugars k3 d10 k3, PS) | 14% |
| GCTGGTTATGACTCAG (sugars k3 d10 k3, PS) | 9% |
| GCTGCATCGAGGTGAG (sugars k3 d10 k3, PS) | 24% |
| GTAAGCCCCACCCCCT (sugars k3 d10 k3, PS) | -35% |
| TCTCTAACCCAGTTTG (sugars k3 d10 k3, PS) | 16% |
| AGCAGCGGGATCAGAA (sugars k3 d10 k3, PS) | 19% |
| GCAAAATGGCGGACTT (sugars k3 d10 k3, PS) | -4% |
| AAGCGAGTTCAAGTGG (sugars k3 d10 k3, PS) | 15% |
| TTCCTTCGGATGCTTC (sugars k3 d10 k3, PS) | 50% |
| AAACTTGCTTACACAC (sugars k3 d10 k3, PS) | 25% |
| AGCGGTACACTCCTTC (sugars k3 d10 k3, PS) | 50% and 43% |
| GGTTTCCTCAAGCTCC (sugars k3 d10 k3, PS) | 34% |
| CCTTCCCTATATAAGG (sugars k3 d10 k3, PS) | -41% |
| TAATGCACTGGTACAC (sugars k3 d10 k3, PS) | -22% |
| CACCCAAAAGCCCTCT (sugars k3 d10 k3, PS) | 17% |
| GGAATACTCTTCCAAG (sugars k3 d10 k3, PS) | 6% |
| TGTAAACCTGTGGTGG (sugars k3 d10 k3, PS) | 48% |

| Sequence | target mRNA inhibition |
| --- | --- |
| GAACAACTCGCATCAC (sugars k3 d10 k3, PS) | 15% |
| CACACTGGCATGCTGG (sugars k3 d10 k3, PS) | 9% |
| GATTAGTAGTCAAAGC (sugars k3 d10 k3, PS) | 24% |
| CGGATTTTTACCAACC (sugars k3 d10 k3, PS) | 38% |
| TTACTTCCGTTACGAA (sugars k3 d10 k3, PS) | -8% |
| CCATTACGCAACTGAG (sugars k3 d10 k3, PS) | 12% |
| TCCGCTCAAATCCTGA (sugars k3 d10 k3, PS) | 26% |
| TGCCTTTACTTATCAA (sugars k3 d10 k3, PS) | 26% |
| CCACTCGCTTTCCCTG (sugars k3 d10 k3, PS) | 41% |
| CATTTGGCCTACTCAA (sugars k3 d10 k3, PS) | 34% |
| CAGCACAGCGGTACAC (sugars k3 d10 k3, PS) | 7% |
| ATTCGATCACCTTCCG (sugars k3 d10 k3, PS) | 19% |
| ACCAATCCCAACCGTA (sugars k3 d10 k3, PS) | 18% |
| CAGAGTTTGAGTGGTT (sugars k3 d10 k3, PS) | 16% |
| CGGAAATCGGCCTACG (sugars k3 d10 k3, PS) | 30% |
| TTATCTGCGGTTTCCT (sugars k3 d10 k3, PS) | 45% |
| TTACTCTAATCACTGT (sugars k3 d10 k3, PS) | 33% |
| AAGTCTCGGGCTGCAG (sugars k3 d10 k3, PS) | 4% |
| AATTAATGCTAGTCCT (sugars k3 d10 k3, PS) | 16% |
| CAGCCTATAAGGACAG (sugars k3 d10 k3, PS) | 22% |
| ACCCACCAAAGACCTC (sugars k3 d10 k3, PS) | 9% |
| CCACCAAAGACCTCGA (sugars k3 d10 k3, PS) | 27% |

| Sequence | target mRNA inhibition |
| --- | --- |
| TCGCTTTTATTCTGCT (sugars k3 d10 k3, PS) | 22% |
| TTTTAAAAAGGCTCGA (sugars k3 d10 k3, PS) | 12% |
| AGCTGAGGCTTCCCGG (sugars k3 d10 k3, PS) | 12% |
| CAAAGATATTGTGCTG (sugars k3 d10 k3, PS) | -10% |
| GTAAGAATTAAGACCA (sugars k3 d10 k3, PS) | 37% |
| CGCCGCAGGGATTTGA (sugars k3 d10 k3, PS) | 19% |
| TCCAATGGACATCTCT (sugars k3 d10 k3, PS) | 25% |
| ATCAAACACTGGTTCC (sugars k3 d10 k3, PS) | 48% |
| GCCAAGCCGCCTGCTA (sugars k3 d10 k3, PS) | 20% |
| ACCACCTGGAATGGCC (sugars k3 d10 k3, PS) | 15% |
| TTTTAGCAGTAACATC (sugars k3 d10 k3, PS) | 34% |
| TGTTATGTTCACCTGA (sugars k3 d10 k3, PS) | 35% |
| CATGAGTATAAGCCTG (sugars k3 d10 k3, PS) | 50% |
| CTGGCATGCTGGTCTA (sugars k3 d10 k3, PS) | 19% |
| GCCAACAGCACAGCGG (sugars k3 d10 k3, PS) | 8% |
| TCGCACTGGCTCCTGG (sugars k3 d10 k3, PS) | 42% |
| CATGAGTTTATCTGCA (sugars k3 d10 k3, PS) | -6% |
| ACCTTCTAACTTCTGC (sugars k3 d10 k3, PS) | 64% and 42% |
| AGTAGGCCAGACCAAC (sugars k3 d10 k3, PS) | 4% |
| CCACGCCAACACAGTT (sugars k3 d10 k3, PS) | 31% |
| CGCACGGAAATTTTTC (sugars k3 d10 k3, PS) | -17% |
